SMILES strings stand for the structures. Some results are limits rather than exact numbers.

IC50 data for 15 compounds are collected here from the Kinase Knowledgebase extract (Sharma et al. 2016).

The target of this test is PIK3CD (Human) (UniProt O00329). The experiment in a line: Assessment of PIK3CD Kinase Activity.
PIK3CD (Human), sequence (O00329 whole entry, looked up): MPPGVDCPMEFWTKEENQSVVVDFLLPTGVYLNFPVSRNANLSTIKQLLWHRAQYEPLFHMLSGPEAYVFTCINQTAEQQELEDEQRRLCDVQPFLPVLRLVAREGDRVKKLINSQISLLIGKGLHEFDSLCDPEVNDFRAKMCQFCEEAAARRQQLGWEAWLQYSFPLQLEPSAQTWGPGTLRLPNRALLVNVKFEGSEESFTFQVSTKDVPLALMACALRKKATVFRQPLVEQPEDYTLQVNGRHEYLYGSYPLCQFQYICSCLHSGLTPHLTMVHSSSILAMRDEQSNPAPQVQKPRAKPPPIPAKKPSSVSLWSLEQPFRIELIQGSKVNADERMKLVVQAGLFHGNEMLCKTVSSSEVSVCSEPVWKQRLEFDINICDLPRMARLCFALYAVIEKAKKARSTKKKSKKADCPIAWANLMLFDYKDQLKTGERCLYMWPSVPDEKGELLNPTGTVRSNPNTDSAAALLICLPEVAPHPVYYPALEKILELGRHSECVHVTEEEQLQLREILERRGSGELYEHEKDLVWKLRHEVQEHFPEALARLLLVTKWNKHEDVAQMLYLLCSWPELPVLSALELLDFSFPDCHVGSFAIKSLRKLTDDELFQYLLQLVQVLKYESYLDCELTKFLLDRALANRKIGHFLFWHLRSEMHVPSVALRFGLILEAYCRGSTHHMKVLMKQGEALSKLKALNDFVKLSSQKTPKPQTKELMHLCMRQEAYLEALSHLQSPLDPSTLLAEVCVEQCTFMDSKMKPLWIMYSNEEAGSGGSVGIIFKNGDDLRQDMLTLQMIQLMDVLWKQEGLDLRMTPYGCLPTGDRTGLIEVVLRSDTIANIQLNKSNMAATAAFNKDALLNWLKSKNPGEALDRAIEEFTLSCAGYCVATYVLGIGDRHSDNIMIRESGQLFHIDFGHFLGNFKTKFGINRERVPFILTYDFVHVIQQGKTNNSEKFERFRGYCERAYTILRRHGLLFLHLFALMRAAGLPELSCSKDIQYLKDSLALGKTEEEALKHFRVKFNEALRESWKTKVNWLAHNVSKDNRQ
In the case of `CCOc1c(C(C)Nc2ncnc3[nH]cnc23)cc(Cl)c(C#N)c1C1CN(C(C)C)C1` (stereo not given), the IC50 (in general, the concentration that inhibits the measured activity by half) was less than 50 nM. Turning to `COc1c(C(C)Nc2ncnc3[nH]cnc23)cc(Cl)c(F)c1C1=CCN(S(C)(=O)=O)CC1` (stereo not given), the IC50 was less than 50 nM. Under `COc1c(C(C)Nc2ncnc3[nH]cnc23)cc(Cl)c(C)c1-c1ccc(C(=O)N2CCC(O)CC2)c(F)c1` (stereo not given) stands less than 50 nM; under `COc1c(-c2ccc(NC(C)=O)cc2)cc(Cl)cc1C(C)Nc1ncnc2[nH]cnc12` (stereo not given), 50 to 100 nM; under `COc1c(C(C)Nc2ncnc3[nH]cnc23)cc(Cl)c(C)c1-c1cnn(C2(CC#N)CC(C#N)C2)c1` (stereo not given), less than 50 nM. Under `CNC(=O)c1ccc(-c2c(C)c(Cl)cc(C(C)Nc3ncnc4[nH]cnc34)c2OC)cc1F` (stereo not given) stands less than 50 nM; under `COc1c(C(C)Nc2ncnc3[nH]cnc23)cc(Cl)c(C)c1-c1ccc(C(=O)NC2CCC2)c(F)c1` (stereo not given), less than 50 nM. `COc1c(-c2ccnn2C)cc(Cl)cc1C(C)Nc1ncnc2[nH]cnc12` (stereo not given) yielded an IC50 of 50 to 100 nM. `COc1c(C(C)Nc2ncnc3[nH]cnc23)cc(Cl)c(C)c1C1CNC(=O)C1` (stereo not given) gave a half-inhibitory concentration (IC50) of less than 50 nM. As for `COc1c(-c2cncnc2)cc(Cl)cc1C(C)Nc1ncnc2[nH]cnc12` (stereo not given), the figure is 50 to 100 nM; as for `COc1c(C(C)Nc2ncnc3[nH]cnc23)cc(Cl)c(C)c1-c1cncc(C#N)c1` (stereo not given), less than 50 nM. For the compound `COc1c(-c2ccncc2)cc(Cl)cc1C(C)Nc1ncnc2[nH]cnc12` (stereo not given), the 50% inhibitory concentration (IC50) is 50 to 100 nM. Consider `COc1ncc(-c2cc(Cl)cc(C(C)Nc3ncnc4[nH]cnc34)c2OC)cn1` (stereo not given), for which the half-maximal inhibitory concentration (IC50) was 100 to 250 nM.

Regarding `COc1c(C(C)Nc2ncnc3[nH]cnc23)cc(Cl)c(C)c1C1CC(=O)N(C)C1` (stereo not given), the IC50 is less than 50 nM. As to `COc1c(C(C)Nc2ncnc3[nH]cnc23)cc(Cl)c(C)c1-c1ccc(C(=O)N2CCOCC2)c(F)c1` (stereo not given), the IC50 is less than 50 nM.
